Results on six molecules are retold here after patent publication US6277871A, “Inhibitors of protein isoprenyl transferases” (Abbott Laboratories, priority 1999, dated 2001).

In the first assay the target is T1, Rat brain protein farnesyltransferase (Rattus norvegicus, UniProt Q02293+Q04631).
T1 construct: Rat brain protein farnesyltransferase activity is measured; from tissue; host or cells: rat brain
T1 sequence (Q02293 whole entry, one chain of several): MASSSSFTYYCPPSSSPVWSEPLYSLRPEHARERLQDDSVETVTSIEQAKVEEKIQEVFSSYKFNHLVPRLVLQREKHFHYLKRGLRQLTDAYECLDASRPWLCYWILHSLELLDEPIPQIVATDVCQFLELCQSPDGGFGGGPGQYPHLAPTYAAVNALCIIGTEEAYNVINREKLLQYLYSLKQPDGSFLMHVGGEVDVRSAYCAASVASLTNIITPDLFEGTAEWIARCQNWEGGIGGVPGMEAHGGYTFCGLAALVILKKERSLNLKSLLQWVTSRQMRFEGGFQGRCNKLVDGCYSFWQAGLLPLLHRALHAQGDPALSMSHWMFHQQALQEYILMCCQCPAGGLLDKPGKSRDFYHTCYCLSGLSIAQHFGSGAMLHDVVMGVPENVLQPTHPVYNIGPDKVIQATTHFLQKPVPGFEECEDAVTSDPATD
In words: in vitro inhibition of protein farnesyltransferase (Amersham scintillation proximity assay, biotin-K Ras B fragment substrate). The assay is classed as biochemical. The following applies: 1 × 10^-7 M; protein farnesyltransferase; compared to uninhibited control; read-out: % inhibition at 1 × 10^-7 M. Here is the method: In addition, in vitro inhibition of protein farnesyltransferase may be measured by the following procedure. […] The enzyme is purified according to Reiss, Y., et al., Cell, 62: 81-88 (1990), hereby incorporated by reference, utilizing steps one through three. […]
The % inhibition of protein farnesyltransferase was determined for representative compounds of the invention.
In the case of `CSCC[C@H](NC(=O)C1=C(c2ccccc2C)CN(C(=O)OCCCC2CCCCC2)CC1)C(=O)O` [Example 1, N-4-[1-(3-cyclohexylpropyloxycarbonyl)-3-(2-methylphenyl)-1,2,5,6-tetrahydroisonicotinyl]methionine], the inhibition at 0.1 µM came to 100%.

As for `CSCC[C@H](NC(=O)C1=C(c2ccccc2C)CN(C(=O)C=Cc2cncs2)CC1)C(=O)O` [Example 2, N-4-[1-(3-[5-thiazolyl]acryloyl)-3-(2-methylphenyl)-1,2,5,6-tetrahydroisonicotinyl]methionine], the inhibition at 0.1 µM turned out to be 43%.

As for `CSCC[C@H](NC(=O)C1=C(c2ccccc2C)CN(C(=O)N(Cc2ccccc2)Cc2cncs2)CC1)C(=O)O` [Example 3, N-4-[1-(N'-benzyl-5-thiazolmethylaminocarbonyl)-3-(2-methylphenyl)-1,2,5,6-tetrahydroisonicotinyl]methionine], the inhibition at 0.1 µM is 100%. Turning to `CSCC[C@H](NC(=O)C1=C(c2ccccc2C)CN(CCCc2ccccc2)CC1)C(=O)O` [Example 4, N-[N'-(3-phenylpropyl)-3-(2-methylphenyl)-1,2,5,6-tetrahydroisonicotinyl]methionine], the inhibition at 0.1 µM worked out at 55%.

The assay is the same for the next values; noted with them: read-out: % inhibition at 1 × 10^-7 M.
Consider `CSCC[C@H](NC(=O)C1=C(c2ccccc2C)CN(C(=O)Cc2cccnc2)CC1)C(=O)O` [Example 5, N-[N'-(3-pyridylacetyl)-3-(2-methylphenyl)-1,2,5,6-tetrahydroisonicotinyl]methionine], for which the inhibition at 0.1 µM worked out at 94%. Consider `CSCC[C@H](NC(=O)C1=C(c2ccccc2C)CN(S(=O)(=O)N(Cc2ccccc2)Cc2cncs2)CC1)C(=O)O` [Example 6, N-4-[1-(N'-benzyl-5-thiazolmethylaminosulfamoyl)-3-(2-methylphenyl)-1,2,5,6-tetrahydroisonicotinyl]methionine], for which the inhibition at 0.1 µM was 90%.

Usually inhibition stands for the drop in the measured response relative to a control, in per cent.
